Test results taken from EP3181574A1, “HIGHLY SOLUBLE REBAUDIOSIDE D” (Purecircle USA, priority 2010, dated 2012).
Like-named read-outs stand apart in the source and are kept apart here. Each block holds one compound with its values, some of them ahead of it.

How the values were obtained:
[1] = cited from earlier work
[2] = Solubility of Rebaudioside D (crystalline vs amorphous) in water; type: physicochemical; settings: for solubility: room temperature, % = grams soluble in 100 grams of solvent
Method: Hereinafter, unless specified otherwise the solubility of material is determined in RO (reverse osmosis) water at room temperature. Where the solubility is expressed as "%" it to be understood as number of grams of material soluble in 100 grams of solvent.
100g of crystalline Rebaudioside D, produced by PureCircle Sdn Bhd, with 98.1% purity (on anhydrous basis) was dissolved in 500 mL aqueous ethanol, containing 50% (vol.) ethanol. The solution was maintained at 50°C and dried using a YC-015 laboratory spray drier (Shanghai Pilotech Instrument & Equipment Co. Ltd., China) operating at 175°C inlet and 100°C outlet temperatures. […]

[3] = water, room temperature; cited from earlier work
[4] = 50°C, solution crystallized after cooling down to room temperature (20°C)
[5] = 100°C, solution crystallized after cooling down to room temperature (20°C)

SMILES: C=C1C[C@@]23CC[C@H]4[C@@](C)(CCC[C@@]4(C)C(=O)O[C@@H]4O[C@H](CO)[C@@H](O)[C@H](O)[C@H]4O)[C@@H]2CC[C@]1(O[C@@H]1O[C@H](CO)[C@@H](O)[C@H](O[C@@H]2O[C@H](CO)[C@@H](O)[C@H](O)[C@H]2O)[C@H]1O[C@@H]1O[C@H](CO)[C@@H](O)[C@H](O)[C@H]1O)C3 [Form 4 Amorphous, Rebaudioside A]
Rate of dissolution in H2O at 25°C ([1]; in 5 minutes): High (>35% in 5 minutes)

Solubility, % (in water) ([2]; 20°C): 0.1% | Solubility, % (in water) [2, 4]: 0.5% | Solubility, % (in water) [2, 5]: 1.1% | solubility ([2]; water): 0.2%
SMILES: C=C1C[C@@]23CC[C@H]4[C@@](C)(CCC[C@@]4(C)C(=O)O[C@@H]4O[C@H](CO)[C@@H](O)[C@H](O)[C@H]4O[C@@H]4O[C@H](CO)[C@@H](O)[C@H](O)[C@H]4O)[C@@H]2CC[C@]1(O[C@@H]1O[C@H](CO)[C@@H](O)[C@H](O[C@@H]2O[C@H](CO)[C@@H](O)[C@H](O)[C@H]2O)[C@H]1O[C@@H]1O[C@H](CO)[C@@H](O)[C@H](O)[C@H]1O)C3 [amorphous Reb D, Rebaudioside D]

solubility when heat is applied ([2]; water, heated, upon cooling to room temperature crystallizes back out from the solution): up to 0.5% | solubility ([2]; water): 0.05%
SMILES: C=C1C[C@@]23CC[C@H]4[C@@](C)(CCC[C@@]4(C)C(=O)O[C@@H]4O[C@H](CO)[C@@H](O)[C@H](O)[C@H]4O[C@@H]4O[C@H](CO)[C@@H](O)[C@H](O)[C@H]4O)[C@@H]2CC[C@]1(O[C@@H]1O[C@H](CO)[C@@H](O)[C@H](O[C@@H]2O[C@H](CO)[C@@H](O)[C@H](O)[C@H]2O)[C@H]1O[C@@H]1O[C@H](CO)[C@@H](O)[C@H](O)[C@H]1O)C3 [Rebaudioside D]

SMILES: C=C1C[C@@]23CC[C@H]4[C@@](C)(CCC[C@@]4(C)C(=O)O[C@@H]4O[C@H](CO)[C@@H](O)[C@H](O)[C@H]4O)[C@@H]2CC[C@]1(O[C@@H]1O[C@H](CO)[C@@H](O)[C@H](O[C@@H]2O[C@H](CO)[C@@H](O)[C@H](O)[C@H]2O)[C@H]1O[C@@H]1O[C@H](CO)[C@@H](O)[C@H](O)[C@H]1O)C3 [Form 2 Anhydrous, Rebaudioside A]
Rate of dissolution in H2O at 25°C ([1]; in 5 minutes): Intermediate (<30% in 5 minutes)

SMILES: C=C1C[C@@]23CC[C@H]4[C@@](C)(CCC[C@@]4(C)C(=O)O[C@@H]4O[C@H](CO)[C@@H](O)[C@H](O)[C@H]4O)[C@@H]2CC[C@]1(O[C@@H]1O[C@H](CO)[C@@H](O)[C@H](O[C@@H]2O[C@H](CO)[C@@H](O)[C@H](O)[C@H]2O)[C@H]1O[C@@H]1O[C@H](CO)[C@@H](O)[C@H](O)[C@H]1O)C3 [Form 1 Hydrate, Rebaudioside A]
Rate of dissolution in H2O at 25°C ([1]; in 60 minutes): Very low (<0.2% in 60 minutes)

SMILES: C=C1C[C@@]23CC[C@H]4[C@@](C)(CCC[C@@]4(C)C(=O)O[C@@H]4O[C@H](CO)[C@@H](O)[C@H](O)[C@H]4O)[C@@H]2CC[C@]1(O[C@@H]1O[C@H](CO)[C@@H](O)[C@H](O[C@@H]2O[C@H](CO)[C@@H](O)[C@H](O)[C@H]2O)[C@H]1O[C@@H]1O[C@H](CO)[C@@H](O)[C@H](O)[C@H]1O)C3 [Form 3 Solvate, Rebaudioside A]
Rate of dissolution in H2O at 25°C ([1]; in 5 minutes): High (>30% in 5 minutes)

SMILES: C=C1C[C@@]23CC[C@H]4[C@@](C)(CCC[C@@]4(C)C(=O)O[C@@H]4O[C@H](CO)[C@@H](O)[C@H](O)[C@H]4O)[C@@H]2CC[C@]1(O[C@@H]1O[C@H](CO)[C@@H](O)[C@H](O[C@@H]2O[C@H](CO)[C@@H](O)[C@H](O)[C@H]2O)[C@H]1O[C@@H]1O[C@H](CO)[C@@H](O)[C@H](O)[C@H]1O)C3 [Rebaudioside A]
thermodynamic equilibrium solubility [3]: 0.8%

Solubility, % (in water) ([2]; 20°C): 0.05% | Solubility, % (in water) [2, 4]: 0.2% | Solubility, % (in water) [2, 5]: 0.5% | solubility ([2]; water): 0.05%
SMILES: C=C1C[C@@]23CC[C@H]4[C@@](C)(CCC[C@@]4(C)C(=O)O[C@@H]4O[C@H](CO)[C@@H](O)[C@H](O)[C@H]4O[C@@H]4O[C@H](CO)[C@@H](O)[C@H](O)[C@H]4O)[C@@H]2CC[C@]1(O[C@@H]1O[C@H](CO)[C@@H](O)[C@H](O[C@@H]2O[C@H](CO)[C@@H](O)[C@H](O)[C@H]2O)[C@H]1O[C@@H]1O[C@H](CO)[C@@H](O)[C@H](O)[C@H]1O)C3 [crystalline Rebaudioside D, Rebaudioside D]
